{"source": "ChEMBL document CHEMBL1201862", "about": "“PubChem BioAssay data set” (2004)", "key": {"[1]": {"experiment": "HIV-1 Vif–A3G interaction blockers – biochemical, TR-FRET, GST-Vif 1-94, biotin-A3G peptide, dose response retest, primary screen (AID 1117319);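 further: TR-FRET signal of purified GST-Vif binding a biotinylated A3G peptide; inhibitors lower the FRET signal by blocking Vif and A3G binding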", "type": "functional"}, "[2]": {"target": "E3 ubiquitin-protein ligase Mdm2 (Homo sapiens, UniProt Q00987)", "sequence (Q00987 whole entry)": "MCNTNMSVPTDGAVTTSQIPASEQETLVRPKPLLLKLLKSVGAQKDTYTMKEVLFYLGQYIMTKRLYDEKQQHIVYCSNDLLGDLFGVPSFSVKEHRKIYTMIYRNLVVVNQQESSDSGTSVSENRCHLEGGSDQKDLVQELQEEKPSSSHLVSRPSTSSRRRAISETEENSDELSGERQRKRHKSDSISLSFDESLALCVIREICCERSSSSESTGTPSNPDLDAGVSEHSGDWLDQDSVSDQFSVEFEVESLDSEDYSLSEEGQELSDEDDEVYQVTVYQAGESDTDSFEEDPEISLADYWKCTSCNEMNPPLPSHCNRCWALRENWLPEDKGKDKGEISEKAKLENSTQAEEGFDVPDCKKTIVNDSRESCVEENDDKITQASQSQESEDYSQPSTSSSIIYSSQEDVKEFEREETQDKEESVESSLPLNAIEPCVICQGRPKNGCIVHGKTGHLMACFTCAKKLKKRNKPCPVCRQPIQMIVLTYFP", "experiment": "MDM2-luc reporter signal enhancers, multi-concentration potency testing, MDM2 ubiquitin-protein ligase inhibitor program, whole-cell format, luminescence detection, 384-well microplate (AID 1394);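 further: MDM2 E3 inhibitors raise luminescence so EC50 is for signal enhancement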", "type": "functional"}, "[3]": {"target": "Large T antigen (Simian virus 40, UniProt P03070)", "sequence (P03070 whole entry)": "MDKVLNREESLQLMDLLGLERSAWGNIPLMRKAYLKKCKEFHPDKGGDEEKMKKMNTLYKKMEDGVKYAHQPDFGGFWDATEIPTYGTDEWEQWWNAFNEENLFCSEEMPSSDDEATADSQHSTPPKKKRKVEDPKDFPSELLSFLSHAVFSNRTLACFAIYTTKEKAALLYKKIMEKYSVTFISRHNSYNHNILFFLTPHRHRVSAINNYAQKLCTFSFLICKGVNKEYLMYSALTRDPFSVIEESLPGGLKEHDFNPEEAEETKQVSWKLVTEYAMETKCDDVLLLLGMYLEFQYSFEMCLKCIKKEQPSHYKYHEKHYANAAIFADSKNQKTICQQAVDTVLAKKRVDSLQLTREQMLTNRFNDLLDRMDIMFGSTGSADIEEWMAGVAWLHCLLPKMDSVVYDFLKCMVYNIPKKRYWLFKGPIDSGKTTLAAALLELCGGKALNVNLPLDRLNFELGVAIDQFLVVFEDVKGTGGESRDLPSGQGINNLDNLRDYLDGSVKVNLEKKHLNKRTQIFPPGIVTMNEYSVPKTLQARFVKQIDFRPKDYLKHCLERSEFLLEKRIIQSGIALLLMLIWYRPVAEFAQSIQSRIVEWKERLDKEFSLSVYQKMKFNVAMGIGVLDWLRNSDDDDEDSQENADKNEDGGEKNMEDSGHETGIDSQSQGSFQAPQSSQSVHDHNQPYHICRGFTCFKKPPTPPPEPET", "type": "functional, Betapolyomavirus macacae"}, "[4]": {"target": "G-protein coupled receptor 55 (Homo sapiens, UniProt Q9Y2T6)", "sequence (Q9Y2T6 whole entry)": "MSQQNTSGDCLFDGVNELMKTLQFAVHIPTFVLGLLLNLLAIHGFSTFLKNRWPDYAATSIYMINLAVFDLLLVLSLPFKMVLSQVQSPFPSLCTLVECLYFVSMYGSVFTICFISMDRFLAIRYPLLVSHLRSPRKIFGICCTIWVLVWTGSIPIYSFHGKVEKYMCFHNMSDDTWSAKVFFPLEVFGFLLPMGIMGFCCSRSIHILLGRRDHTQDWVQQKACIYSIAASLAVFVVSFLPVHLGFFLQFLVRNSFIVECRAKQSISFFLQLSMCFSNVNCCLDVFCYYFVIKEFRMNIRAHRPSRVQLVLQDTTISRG", "experiment": "inhibition of LPI-stimulated GPR55 beta-arrestin translocation – imaging, U2OS, beta-arrestin-GFP, LPI agonist, primary screen (AID 2013);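 further: antagonist potency measured as reduced agonist-driven arrestin aggregation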", "type": "functional"}, "[5]": {"experiment": "A2780 cell killing – plate reader, dry powder samples, cytotoxicity control, dose response (AID 743046)", "type": "functional, cell-based"}, "[6]": {"experiment": "OVCAR8 cell viability loss – plate reader, dry powder samples, PAX8 project, dose response (AID 743197)", "type": "functional, cell-based", "details": "OVCAR-8"}, "[7]": {"target": "Paired box protein Pax-8 (Homo sapiens, UniProt Q06710)", "sequence (Q06710 whole entry)": "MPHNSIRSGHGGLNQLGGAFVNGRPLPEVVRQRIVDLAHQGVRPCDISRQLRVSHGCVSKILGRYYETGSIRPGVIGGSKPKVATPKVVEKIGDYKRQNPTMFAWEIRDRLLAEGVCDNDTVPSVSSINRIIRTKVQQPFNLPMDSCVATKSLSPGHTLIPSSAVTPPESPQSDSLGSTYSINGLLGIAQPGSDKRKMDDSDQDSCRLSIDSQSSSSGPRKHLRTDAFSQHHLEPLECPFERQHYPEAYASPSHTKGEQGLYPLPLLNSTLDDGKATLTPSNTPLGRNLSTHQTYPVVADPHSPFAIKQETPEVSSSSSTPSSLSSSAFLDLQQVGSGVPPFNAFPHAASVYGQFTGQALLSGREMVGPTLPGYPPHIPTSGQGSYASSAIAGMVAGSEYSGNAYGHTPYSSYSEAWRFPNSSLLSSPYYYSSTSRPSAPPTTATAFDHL", "experiment": "PAX8 transcriptional activity inhibition in RMG-I – RMG-I cells, luciferase, cherry-pick, dose response (AID 687027);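 further: luciferase reporter driven by Pax8 target thyroperoxidase promoter measured by SteadyGlo luminescence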", "type": "functional, cell-based"}, "[8]": {"experiment": "IGROV1 cell killing – plate reader, dry powder samples, PAX8 inhibitor project, dose response (AID 743043)", "type": "functional, cell-based", "details": "IGROV-1"}, "[9]": {"experiment": "OVCAR-3 cell viability loss – plate reader, dry powder samples, PAX8 inhibitor project, dose response (AID 743044)", "type": "functional, cell-based"}, "[10]": {"experiment": "OV-90 cell viability loss – plate reader, dry powder, SA8, PAX8 inhibitor project, dose response (AID 743149)", "type": "functional, cell-based"}, "[11]": {"experiment": "PAX8-dependent cell viability loss – plate reader, dry powder, dose response (AID 743049)", "type": "functional, cell-based"}, "[12]": {"experiment": "toxicity toward immortalized ovarian surface epithelium – cell-based, plate reader, dry powder samples, cytotoxicity control for PAX8 inhibitor project, dose response (AID 743045)", "type": "functional"}, "[13]": {"experiment": "COV434 cell viability loss – plate reader, dry powder, SA7, cytotoxicity control for PAX8 inhibitor project, dose response (AID 743145)", "type": "functional, cell-based"}, "[14]": {"experiment": "inhibitors acting on PAX2 in cells – cell-based, plate reader, dry powder samples, selectivity assay for PAX8 inhibitor project, dose response (AID 743048);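 further: HEK293 cells carrying a WT1 promoter luciferase reporter driven by expressed Pax2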", "type": "functional"}, "[15]": {"experiment": "PAX5 cellular inhibition readout – cell-based, plate reader, dry powder samples, selectivity assay for PAX8 inhibitor project, dose response (AID 743047);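 further: HEK293 cells carrying a Pax5 driven CD19 promoter luciferase reporter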", "type": "functional"}, "[16]": {"target": "T1, Insulin-degrading enzyme (Homo sapiens, UniProt P14735)", "T1 sequence (P14735 whole entry)": "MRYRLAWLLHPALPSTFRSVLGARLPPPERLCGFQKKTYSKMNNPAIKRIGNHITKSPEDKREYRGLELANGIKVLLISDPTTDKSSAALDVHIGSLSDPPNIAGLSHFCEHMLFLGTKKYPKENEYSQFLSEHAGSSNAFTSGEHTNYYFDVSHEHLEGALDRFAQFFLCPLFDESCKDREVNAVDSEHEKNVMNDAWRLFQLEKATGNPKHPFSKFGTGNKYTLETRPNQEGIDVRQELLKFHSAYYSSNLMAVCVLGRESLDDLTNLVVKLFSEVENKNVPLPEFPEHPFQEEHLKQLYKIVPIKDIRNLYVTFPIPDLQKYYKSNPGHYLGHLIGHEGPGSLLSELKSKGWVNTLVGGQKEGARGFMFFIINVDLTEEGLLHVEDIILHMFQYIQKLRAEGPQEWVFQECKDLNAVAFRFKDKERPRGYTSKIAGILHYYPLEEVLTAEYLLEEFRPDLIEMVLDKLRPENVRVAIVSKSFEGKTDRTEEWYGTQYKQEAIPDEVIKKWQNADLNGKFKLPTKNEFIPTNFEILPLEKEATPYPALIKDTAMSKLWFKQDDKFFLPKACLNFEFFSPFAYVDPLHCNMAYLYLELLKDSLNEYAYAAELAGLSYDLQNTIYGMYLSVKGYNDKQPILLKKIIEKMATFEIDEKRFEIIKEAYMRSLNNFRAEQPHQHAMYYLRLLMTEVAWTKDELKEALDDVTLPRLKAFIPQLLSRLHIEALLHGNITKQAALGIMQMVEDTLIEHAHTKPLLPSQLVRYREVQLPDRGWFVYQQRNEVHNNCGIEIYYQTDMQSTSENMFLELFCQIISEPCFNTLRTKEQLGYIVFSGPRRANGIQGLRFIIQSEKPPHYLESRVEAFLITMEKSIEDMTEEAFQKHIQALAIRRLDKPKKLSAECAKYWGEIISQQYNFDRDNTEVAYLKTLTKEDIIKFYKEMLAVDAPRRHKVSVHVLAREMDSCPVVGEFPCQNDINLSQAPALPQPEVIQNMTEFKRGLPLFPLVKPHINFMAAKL", "experiment": "recombinant IDE activation, cell-free – biochemical, fluorescence polarization, counter-screen for IDE activator project, dose response (AID 588681)"}, "[17]": {"target": "T1, Insulin-degrading enzyme", "experiment": "cellular IDE activation of Abeta substrate cleavage – fluorescence polarization, HEK cells, dose response (AID 588439)", "type": "functional, cell-based"}, "[18]": {"tested_on": "HEK293", "experiment": "membrane integrity loss in HEK cells – cell-based, fluorescence, cytotoxicity control for IDE activator project, dose response (AID 588440);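 further: cytotoxicity by LDH release measuring loss of membrane integrity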", "type": "functional", "details": "Homo sapiens"}, "[19]": {"tested_on": "HEK293", "experiment": "optical interference in Abeta FP readout, dose response, artefact control for IDE activator project, biochemical, fluorescence polarization (AID 588442)", "type": "functional, cell-based", "details": "Homo sapiens"}, "[20]": {"target": "Glutathione-S-transferase (Schistosoma japonicum, UniProt Q26513)", "sequence (Q26513 whole entry)": "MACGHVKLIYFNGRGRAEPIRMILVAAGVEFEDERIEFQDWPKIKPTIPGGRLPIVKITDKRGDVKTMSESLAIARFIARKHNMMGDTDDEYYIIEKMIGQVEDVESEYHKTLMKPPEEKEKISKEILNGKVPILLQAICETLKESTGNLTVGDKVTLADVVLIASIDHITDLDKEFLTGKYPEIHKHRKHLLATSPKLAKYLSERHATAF", "experiment": "GST-antibody interaction or FRET quenching – biochemical, TR-FRET, artefact control for Vif-APOBEC3G degradation inhibitor project, dose response (AID 1117362)", "type": "functional"}, "[21]": {"target": "Ras and Rab interactor 1/Tyrosine-protein kinase ABL1 (Homo sapiens, UniProt P00519+Q13671)", "sequence (P00519 whole entry)": "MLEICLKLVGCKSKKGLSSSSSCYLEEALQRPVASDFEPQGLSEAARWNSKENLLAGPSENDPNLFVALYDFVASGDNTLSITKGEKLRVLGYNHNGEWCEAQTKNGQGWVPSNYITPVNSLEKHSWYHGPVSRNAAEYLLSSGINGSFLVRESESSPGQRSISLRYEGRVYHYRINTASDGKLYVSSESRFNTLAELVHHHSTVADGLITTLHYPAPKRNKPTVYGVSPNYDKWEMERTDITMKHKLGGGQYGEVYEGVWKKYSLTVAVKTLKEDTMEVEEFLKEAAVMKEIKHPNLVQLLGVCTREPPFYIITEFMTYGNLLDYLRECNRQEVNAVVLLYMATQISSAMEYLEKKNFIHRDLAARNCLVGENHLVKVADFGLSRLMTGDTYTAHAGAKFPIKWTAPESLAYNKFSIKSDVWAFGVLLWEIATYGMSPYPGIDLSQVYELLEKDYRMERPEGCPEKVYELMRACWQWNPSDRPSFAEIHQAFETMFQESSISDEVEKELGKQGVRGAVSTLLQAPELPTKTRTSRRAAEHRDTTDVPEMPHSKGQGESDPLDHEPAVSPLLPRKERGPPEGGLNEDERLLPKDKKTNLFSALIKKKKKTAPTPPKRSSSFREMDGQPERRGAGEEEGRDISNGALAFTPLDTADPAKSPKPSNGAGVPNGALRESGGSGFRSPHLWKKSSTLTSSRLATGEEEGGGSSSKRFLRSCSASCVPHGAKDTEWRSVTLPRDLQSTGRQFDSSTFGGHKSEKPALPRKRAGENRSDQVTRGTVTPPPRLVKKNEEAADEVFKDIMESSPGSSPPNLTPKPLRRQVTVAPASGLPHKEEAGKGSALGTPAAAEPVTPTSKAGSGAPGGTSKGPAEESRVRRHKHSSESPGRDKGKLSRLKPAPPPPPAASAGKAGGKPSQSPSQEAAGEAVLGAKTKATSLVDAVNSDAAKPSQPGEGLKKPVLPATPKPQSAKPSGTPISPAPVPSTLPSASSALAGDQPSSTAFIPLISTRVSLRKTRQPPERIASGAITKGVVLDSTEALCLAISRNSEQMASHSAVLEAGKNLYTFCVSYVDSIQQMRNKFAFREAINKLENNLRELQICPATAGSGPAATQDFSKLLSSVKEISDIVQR", "sequence (Q13671 whole entry)": "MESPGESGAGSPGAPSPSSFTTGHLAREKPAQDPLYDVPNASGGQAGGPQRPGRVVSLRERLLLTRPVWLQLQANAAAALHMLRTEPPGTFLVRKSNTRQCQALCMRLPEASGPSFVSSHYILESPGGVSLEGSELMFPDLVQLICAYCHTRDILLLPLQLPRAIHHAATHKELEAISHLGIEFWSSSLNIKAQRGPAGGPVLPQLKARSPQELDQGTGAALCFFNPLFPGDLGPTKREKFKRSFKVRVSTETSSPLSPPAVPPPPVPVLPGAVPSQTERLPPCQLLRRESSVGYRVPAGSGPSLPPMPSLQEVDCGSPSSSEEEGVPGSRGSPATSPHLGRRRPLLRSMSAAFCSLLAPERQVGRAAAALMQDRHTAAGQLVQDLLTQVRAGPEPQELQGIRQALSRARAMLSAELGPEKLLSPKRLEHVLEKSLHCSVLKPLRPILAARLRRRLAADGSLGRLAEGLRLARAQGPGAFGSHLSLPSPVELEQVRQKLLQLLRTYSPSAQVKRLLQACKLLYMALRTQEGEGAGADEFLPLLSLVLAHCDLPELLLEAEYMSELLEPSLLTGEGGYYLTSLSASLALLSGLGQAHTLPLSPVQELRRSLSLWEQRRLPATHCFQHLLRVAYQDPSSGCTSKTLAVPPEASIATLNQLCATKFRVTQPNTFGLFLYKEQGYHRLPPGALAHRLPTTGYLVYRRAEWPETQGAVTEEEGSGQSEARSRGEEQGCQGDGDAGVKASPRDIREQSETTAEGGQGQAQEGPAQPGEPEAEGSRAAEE", "type": "functional"}, "[22]": {"target": "Nonstructural protein 1 (Influenza A virus, UniProt Q194T2)", "sequence (Q194T2 whole entry)": "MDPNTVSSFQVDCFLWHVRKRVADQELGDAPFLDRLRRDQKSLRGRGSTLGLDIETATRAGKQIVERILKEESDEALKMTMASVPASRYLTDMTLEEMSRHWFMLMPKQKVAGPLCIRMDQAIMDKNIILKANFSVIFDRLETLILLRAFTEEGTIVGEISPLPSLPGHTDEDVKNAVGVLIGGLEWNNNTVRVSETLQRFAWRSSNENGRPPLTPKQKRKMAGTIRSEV", "type": "functional, Influenza A virus (A/California/07/2009(H1N1))"}, "[23]": {"experiment": "blockers of HIV-1 ZM109 envelope-driven cell-cell fusion – HeLa effector, CEM target cells, luciferase, cherry-pick, dose response (AID 652058)", "type": "functional, cell-based"}, "[24]": {"experiment": "blockers of HIV-1 envelope-mediated cell-cell fusion – cherry-pick, dose response (AID 652057)", "type": "functional, cell-based"}, "[25]": {"experiment": "inhibition of Env-driven cell fusion – HIV entry, plate reader, dry powder, dose response (AID 687023)", "type": "functional, cell-based"}, "[26]": {"experiment": "HepG2 hepatoma cell viability loss – plate reader, dry powder, cytotoxicity control, dose response (AID 651947)", "type": "functional, cell-based"}}, "note": "Values joined by “and” are separate entries in the source; they are usually repeats but may differ in a detail not shown here. Identical values can stand only once. Active and inactive are the calls of the source."}
{"smiles": "CC(C)(C)CN1CCNC(=O)C1CC(=O)NCCc1ccccc1C(F)(F)F", "note": "(stereo not drawn)", "values": [{"measurement": "IC50", "setting": "[1]", "value": "> 100 µM (active)"}]}
{"smiles": "CC1=NN(c2cccc(C(=O)O)c2)C(=O)/C1=C\\C=C/c1ccccc1", "values": [{"measurement": "EC50", "setting": "[2]", "value": "4.82 µM (active)"}, {"measurement": "IC50", "setting": "[3]", "value": "20.4 µM (active)"}, {"measurement": "IC50", "setting": "[4]", "value": "3.3 µM (active)"}]}
{"smiles": "C[C@H](CO)N1C[C@H](C)[C@@H](CN(C)Cc2ccc(Cl)c(Cl)c2)OCCCC[C@H](C)Oc2ccc(NS(=O)(=O)c3ccc(Cl)cc3)cc2C1=O", "values": [{"measurement": "AC50", "setting": "[5]", "value": "4.46 µM (active)"}, {"measurement": "AC50", "setting": "[6]", "value": "> 70 µM (inactive)"}, {"measurement": "AC50", "setting": "[7]", "value": "11.5 µM (active)"}]}
{"smiles": "O=C(C[C@@H]1C[C@H]2c3cc(NS(=O)(=O)c4ccc(F)cc4)ccc3O[C@H]2[C@H](CO)O1)NCc1ccc(Cl)cc1", "values": [{"measurement": "AC50", "setting": "[8]", "value": "43 µM (active)"}, {"measurement": "AC50", "setting": "[6]", "value": "25.8 µM (active)"}, {"measurement": "AC50", "setting": "[7]", "value": "5.93 µM (active)"}, {"measurement": "AC50", "setting": "[9]", "value": "16.1 µM (active)"}, {"measurement": "AC50", "setting": "[10]", "value": "19.1 µM (active)"}, {"measurement": "AC50", "setting": "[11]", "value": "45.7 µM (active)"}, {"measurement": "AC50", "setting": "[12]", "value": "19.8 µM (active)"}, {"measurement": "AC50", "setting": "[13]", "value": "0.000676 µM (active)"}, {"measurement": "AC50", "setting": "[14]", "value": "34.3 µM (active)"}, {"measurement": "AC50", "setting": "[15]", "value": "28.1 µM (active)"}]}
{"smiles": "O=C(O)CCCC[C@@H]1SC[C@@H]2NC(=O)N[C@@H]21", "note": "[BIOTIN]", "values": [{"measurement": "EC50", "setting": "[16]", "value": "2.53 µM (active)"}, {"measurement": "EC50", "setting": "[17]", "value": "2.37 µM (active)"}, {"measurement": "IC50", "setting": "[18]", "value": "> 89.3 µM (inactive)"}, {"measurement": "EC50", "setting": "[19]", "value": "2.06 µM (active)"}, {"measurement": "IC50", "setting": "[20]", "value": "0.85 µM (active)"}, {"measurement": "IC50", "setting": "[21]", "value": "> 3.73 nM (active) and 529 nM (active)"}, {"measurement": "IC50", "setting": "[22]", "value": "< 0.2 µM (active)"}]}
{"smiles": "Cc1noc(C)c1S(=O)(=O)Nc1cccc2c1O[C@H](CN(C)Cc1ccc(C(F)(F)F)cc1)[C@H](C)CN([C@H](C)CO)C2=O", "values": [{"measurement": "AC50", "setting": "[23]", "value": "0.935 µM (active)"}, {"measurement": "AC50", "setting": "[24]", "value": "0.731 µM (active)"}, {"measurement": "AC50", "setting": "[25]", "value": "2.42 µM (active)"}]}
{"smiles": "FC(F)(F)c1ccccc1CSc1nnc(-c2ccccc2)o1", "values": [{"measurement": "AC50", "setting": "[26]", "value": "23.1 µM (active)"}]}
